Measured values: PMC8333062, “Chemical tools for epichaperome-mediated interactome dysfunctions of the central nervous system” (Nature Communications, 2021)

Experiments:
Assay in all cases: scanEDGE off-target screen
Type in all cases: binding
97 kinases [1] = molecular target: T1, 97 kinases (Homo sapiens, UniProt Q9UPE1); details: read-out: %Ctrl SRPK3
T1 construct: purchased Ambit Biosciences (scanEDGE / KINOMEscan) scanEDGE 97 kinase panel; host or cells: T7 phage in E. coli BL21-derived host; remaining kinases in HEK-293 cells

97 kinases [2] = molecular target: T2, 97 kinases (Homo sapiens, UniProt P11309); details: read-out: %Ctrl PIM1
T2 construct: purchased Ambit Biosciences (scanEDGE / KINOMEscan) scanEDGE 97 kinase panel; host or cells: T7 phage in E. coli BL21-derived host; remaining kinases in HEK-293 cells

97 kinases [3] = molecular target: T3, 97 kinases (Homo sapiens, UniProt P36896); details: read-out: %Ctrl ACVR1B
T3 construct: purchased Ambit Biosciences (scanEDGE / KINOMEscan) scanEDGE 97 kinase panel; host or cells: T7 phage in E. coli BL21-derived host; remaining kinases in HEK-293 cells

97 kinases [4] = molecular target: T4, 97 kinases (Homo sapiens, UniProt Q9Y6R4); details: read-out: %Ctrl MAP3K4
T4 construct: purchased Ambit Biosciences (scanEDGE / KINOMEscan) scanEDGE 97 kinase panel; host or cells: T7 phage in E. coli BL21-derived host; remaining kinases in HEK-293 cells

97 kinases [5] = molecular target: T5, 97 kinases (Homo sapiens, UniProt Q13873); details: read-out: %Ctrl BMPR2
T5 construct: purchased Ambit Biosciences (scanEDGE / KINOMEscan) scanEDGE 97 kinase panel; host or cells: T7 phage in E. coli BL21-derived host; remaining kinases in HEK-293 cells

97 kinases [6] = molecular target: T6, 97 kinases (Homo sapiens, UniProt P49137); details: read-out: %Ctrl MAPKAPK2
T6 construct: purchased Ambit Biosciences (scanEDGE / KINOMEscan) scanEDGE 97 kinase panel; host or cells: T7 phage in E. coli BL21-derived host; remaining kinases in HEK-293 cells

97 kinases [7] = molecular target: T7, 97 kinases (Homo sapiens, UniProt P04049); details: read-out: %Ctrl RAF1
T7 construct: purchased Ambit Biosciences (scanEDGE / KINOMEscan) scanEDGE 97 kinase panel; host or cells: T7 phage in E. coli BL21-derived host; remaining kinases in HEK-293 cells

97 kinases [8] = molecular target: T8, 97 kinases (Homo sapiens, UniProt P31751); details: read-out: %Ctrl AKT2
T8 construct: purchased Ambit Biosciences (scanEDGE / KINOMEscan) scanEDGE 97 kinase panel; host or cells: T7 phage in E. coli BL21-derived host; remaining kinases in HEK-293 cells

97 kinases [9] = molecular target: T9, 97 kinases (Homo sapiens, UniProt P50750); details: read-out: %Ctrl CDK9
T9 construct: purchased Ambit Biosciences (scanEDGE / KINOMEscan) scanEDGE 97 kinase panel; host or cells: T7 phage in E. coli BL21-derived host; remaining kinases in HEK-293 cells

97 kinases [10] = molecular target: T10, 97 kinases (Homo sapiens, UniProt P12931); details: read-out: %Ctrl SRC
T10 construct: purchased Ambit Biosciences (scanEDGE / KINOMEscan) scanEDGE 97 kinase panel; host or cells: T7 phage in E. coli BL21-derived host; remaining kinases in HEK-293 cells

97 kinases [11] = molecular target: T11, 97 kinases (Homo sapiens, UniProt P00519, T315I); details: read-out: %Ctrl ABL1(T315I)-phosphorylated
T11 construct: purchased Ambit Biosciences (scanEDGE / KINOMEscan) scanEDGE 97 kinase panel; host or cells: T7 phage in E. coli BL21-derived host; remaining kinases in HEK-293 cells

97 kinases [12] = molecular target: T12, 97 kinases (Homo sapiens, UniProt O14920); details: read-out: %Ctrl IKK-beta
T12 construct: purchased Ambit Biosciences (scanEDGE / KINOMEscan) scanEDGE 97 kinase panel; host or cells: T7 phage in E. coli BL21-derived host; remaining kinases in HEK-293 cells

97 kinases [13] = molecular target: T13, 97 kinases (Homo sapiens, UniProt P00533, L858R); details: read-out: %Ctrl EGFR(L858R)
T13 construct: purchased Ambit Biosciences (scanEDGE / KINOMEscan) scanEDGE 97 kinase panel; host or cells: T7 phage in E. coli BL21-derived host; remaining kinases in HEK-293 cells

97 kinases [14] = molecular target: T14, 97 kinases (Homo sapiens, UniProt P31749); details: read-out: %Ctrl AKT1
T14 construct: purchased Ambit Biosciences (scanEDGE / KINOMEscan) scanEDGE 97 kinase panel; host or cells: T7 phage in E. coli BL21-derived host; remaining kinases in HEK-293 cells

97 kinases [15] = molecular target: T15, 97 kinases (Homo sapiens, UniProt P45984); details: read-out: %Ctrl JNK2
T15 construct: purchased Ambit Biosciences (scanEDGE / KINOMEscan) scanEDGE 97 kinase panel; host or cells: T7 phage in E. coli BL21-derived host; remaining kinases in HEK-293 cells

97 kinases [16] = molecular target: T16, 97 kinases (Homo sapiens, UniProt P17612); details: read-out: %Ctrl PKAC-alpha
T16 construct: purchased Ambit Biosciences (scanEDGE / KINOMEscan) scanEDGE 97 kinase panel; host or cells: T7 phage in E. coli BL21-derived host; remaining kinases in HEK-293 cells

97 kinases [17] = molecular target: T17, 97 kinases (Homo sapiens, UniProt Q13177); details: read-out: %Ctrl PAK2
T17 construct: purchased Ambit Biosciences (scanEDGE / KINOMEscan) scanEDGE 97 kinase panel; host or cells: T7 phage in E. coli BL21-derived host; remaining kinases in HEK-293 cells

97 kinases [18] = molecular target: T18, 97 kinases (Homo sapiens, UniProt Q02750); details: read-out: %Ctrl MEK1
T18 construct: purchased Ambit Biosciences (scanEDGE / KINOMEscan) scanEDGE 97 kinase panel; host or cells: T7 phage in E. coli BL21-derived host; remaining kinases in HEK-293 cells

97 kinases [19] = molecular target: T19, 97 kinases (Homo sapiens, UniProt Q9BWU1); details: read-out: %Ctrl CDK11
T19 construct: purchased Ambit Biosciences (scanEDGE / KINOMEscan) scanEDGE 97 kinase panel; host or cells: T7 phage in E. coli BL21-derived host; remaining kinases in HEK-293 cells

97 kinases [20] = molecular target: T20, 97 kinases (Homo sapiens, UniProt P10721, D816V); details: read-out: %Ctrl KIT(D816V)
T20 construct: purchased Ambit Biosciences (scanEDGE / KINOMEscan) scanEDGE 97 kinase panel; host or cells: T7 phage in E. coli BL21-derived host; remaining kinases in HEK-293 cells

97 kinases [21] = molecular target: T21, 97 kinases (Homo sapiens, UniProt O15075); details: read-out: %Ctrl DCAMKL1
T21 construct: purchased Ambit Biosciences (scanEDGE / KINOMEscan) scanEDGE 97 kinase panel; host or cells: T7 phage in E. coli BL21-derived host; remaining kinases in HEK-293 cells

97 kinases [22] = molecular target: T22, 97 kinases (Homo sapiens, UniProt P10721); details: read-out: %Ctrl KIT
T22 construct: purchased Ambit Biosciences (scanEDGE / KINOMEscan) scanEDGE 97 kinase panel; host or cells: T7 phage in E. coli BL21-derived host; remaining kinases in HEK-293 cells

97 kinases [23] = molecular target: T23, 97 kinases (Homo sapiens, UniProt P07949); details: read-out: %Ctrl RET
T23 construct: purchased Ambit Biosciences (scanEDGE / KINOMEscan) scanEDGE 97 kinase panel; host or cells: T7 phage in E. coli BL21-derived host; remaining kinases in HEK-293 cells

97 kinases [24] = molecular target: T24, 97 kinases (Homo sapiens, UniProt P52333); details: read-out: %Ctrl JAK3(JH1domain-catalytic)
T24 construct: purchased Ambit Biosciences (scanEDGE / KINOMEscan) scanEDGE 97 kinase panel; host or cells: T7 phage in E. coli BL21-derived host; remaining kinases in HEK-293 cells

97 kinases [25] = molecular target: T25, 97 kinases (Homo sapiens, UniProt Q15831); details: read-out: %Ctrl LKB1
T25 construct: purchased Ambit Biosciences (scanEDGE / KINOMEscan) scanEDGE 97 kinase panel; host or cells: T7 phage in E. coli BL21-derived host; remaining kinases in HEK-293 cells

97 kinases [26] = molecular target: T26, 97 kinases (Homo sapiens, UniProt Q9Y463); details: read-out: %Ctrl DYRK1B
T26 construct: purchased Ambit Biosciences (scanEDGE / KINOMEscan) scanEDGE 97 kinase panel; host or cells: T7 phage in E. coli BL21-derived host; remaining kinases in HEK-293 cells

97 kinases [27] = molecular target: T27, 97 kinases (Homo sapiens, UniProt P78368); details: read-out: %Ctrl CSNK1G2
T27 construct: purchased Ambit Biosciences (scanEDGE / KINOMEscan) scanEDGE 97 kinase panel; host or cells: T7 phage in E. coli BL21-derived host; remaining kinases in HEK-293 cells

97 kinases [28] = molecular target: T28, 97 kinases (Homo sapiens, UniProt P04629); details: read-out: %Ctrl TRKA
T28 construct: purchased Ambit Biosciences (scanEDGE / KINOMEscan) scanEDGE 97 kinase panel; host or cells: T7 phage in E. coli BL21-derived host; remaining kinases in HEK-293 cells

97 kinases [29] = molecular target: T29, 97 kinases (Homo sapiens, UniProt P53350); details: read-out: %Ctrl PLK1
T29 construct: purchased Ambit Biosciences (scanEDGE / KINOMEscan) scanEDGE 97 kinase panel; host or cells: T7 phage in E. coli BL21-derived host; remaining kinases in HEK-293 cells

97 kinases [30] = molecular target: T30, 97 kinases (Homo sapiens, UniProt Q00526); details: read-out: %Ctrl CDK3
T30 construct: purchased Ambit Biosciences (scanEDGE / KINOMEscan) scanEDGE 97 kinase panel; host or cells: T7 phage in E. coli BL21-derived host; remaining kinases in HEK-293 cells

97 kinases [31] = molecular target: T31, 97 kinases (Homo sapiens, UniProt P36888); details: read-out: %Ctrl FLT3
T31 construct: purchased Ambit Biosciences (scanEDGE / KINOMEscan) scanEDGE 97 kinase panel; host or cells: T7 phage in E. coli BL21-derived host; remaining kinases in HEK-293 cells

97 kinases [32] = molecular target: T32, 97 kinases (Homo sapiens, UniProt P16234); details: read-out: %Ctrl PDGFRA
T32 construct: purchased Ambit Biosciences (scanEDGE / KINOMEscan) scanEDGE 97 kinase panel; host or cells: T7 phage in E. coli BL21-derived host; remaining kinases in HEK-293 cells

97 kinases [33] = molecular target: T33, 97 kinases (Homo sapiens, UniProt P35968); details: read-out: %Ctrl VEGFR2
T33 construct: purchased Ambit Biosciences (scanEDGE / KINOMEscan) scanEDGE 97 kinase panel; host or cells: T7 phage in E. coli BL21-derived host; remaining kinases in HEK-293 cells

97 kinases [34] = molecular target: T34, 97 kinases (Homo sapiens, UniProt P29317); details: read-out: %Ctrl EPHA2
T34 construct: purchased Ambit Biosciences (scanEDGE / KINOMEscan) scanEDGE 97 kinase panel; host or cells: T7 phage in E. coli BL21-derived host; remaining kinases in HEK-293 cells

97 kinases [35] = molecular target: T35, 97 kinases (Homo sapiens, UniProt Q9UM73); details: read-out: %Ctrl ALK
T35 construct: purchased Ambit Biosciences (scanEDGE / KINOMEscan) scanEDGE 97 kinase panel; host or cells: T7 phage in E. coli BL21-derived host; remaining kinases in HEK-293 cells

97 kinases [36] = molecular target: T36, 97 kinases (Homo sapiens, UniProt P36507); details: read-out: %Ctrl MEK2
T36 construct: purchased Ambit Biosciences (scanEDGE / KINOMEscan) scanEDGE 97 kinase panel; host or cells: T7 phage in E. coli BL21-derived host; remaining kinases in HEK-293 cells

97 kinases [37] = molecular target: T37, 97 kinases (Homo sapiens, UniProt O00750); details: read-out: %Ctrl PIK3C2B
T37 construct: purchased Ambit Biosciences (scanEDGE / KINOMEscan) scanEDGE 97 kinase panel; host or cells: T7 phage in E. coli BL21-derived host; remaining kinases in HEK-293 cells

97 kinases [38] = molecular target: T38, 97 kinases (Homo sapiens, UniProt P27361); details: read-out: %Ctrl ERK1
T38 construct: purchased Ambit Biosciences (scanEDGE / KINOMEscan) scanEDGE 97 kinase panel; host or cells: T7 phage in E. coli BL21-derived host; remaining kinases in HEK-293 cells

T36 sequence (P36507 whole entry): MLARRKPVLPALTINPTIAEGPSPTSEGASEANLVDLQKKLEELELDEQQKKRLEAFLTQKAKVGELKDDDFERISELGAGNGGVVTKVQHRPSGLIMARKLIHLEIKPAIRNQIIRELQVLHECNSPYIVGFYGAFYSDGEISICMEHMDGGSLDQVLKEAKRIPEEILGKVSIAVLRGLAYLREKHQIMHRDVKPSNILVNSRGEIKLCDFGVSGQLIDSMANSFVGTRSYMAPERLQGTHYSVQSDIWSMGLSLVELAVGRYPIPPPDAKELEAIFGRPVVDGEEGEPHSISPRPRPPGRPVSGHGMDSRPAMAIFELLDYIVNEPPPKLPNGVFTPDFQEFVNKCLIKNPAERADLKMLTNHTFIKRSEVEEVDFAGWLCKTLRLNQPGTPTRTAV
T3 sequence (P36896 24-505): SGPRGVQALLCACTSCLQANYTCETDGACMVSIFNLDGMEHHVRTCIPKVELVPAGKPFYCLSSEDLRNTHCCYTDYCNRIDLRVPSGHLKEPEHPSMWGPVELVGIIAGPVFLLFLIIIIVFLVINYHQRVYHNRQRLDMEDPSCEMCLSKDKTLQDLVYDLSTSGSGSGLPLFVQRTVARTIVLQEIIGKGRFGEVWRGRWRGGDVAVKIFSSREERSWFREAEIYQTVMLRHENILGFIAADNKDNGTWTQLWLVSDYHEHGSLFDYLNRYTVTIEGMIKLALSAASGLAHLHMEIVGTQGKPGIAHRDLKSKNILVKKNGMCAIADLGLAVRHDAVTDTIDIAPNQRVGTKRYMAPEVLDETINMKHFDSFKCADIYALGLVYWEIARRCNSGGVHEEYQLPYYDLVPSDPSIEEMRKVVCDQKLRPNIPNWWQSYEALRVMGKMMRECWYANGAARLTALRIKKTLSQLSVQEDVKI
T4 sequence (Q9Y6R4 whole entry): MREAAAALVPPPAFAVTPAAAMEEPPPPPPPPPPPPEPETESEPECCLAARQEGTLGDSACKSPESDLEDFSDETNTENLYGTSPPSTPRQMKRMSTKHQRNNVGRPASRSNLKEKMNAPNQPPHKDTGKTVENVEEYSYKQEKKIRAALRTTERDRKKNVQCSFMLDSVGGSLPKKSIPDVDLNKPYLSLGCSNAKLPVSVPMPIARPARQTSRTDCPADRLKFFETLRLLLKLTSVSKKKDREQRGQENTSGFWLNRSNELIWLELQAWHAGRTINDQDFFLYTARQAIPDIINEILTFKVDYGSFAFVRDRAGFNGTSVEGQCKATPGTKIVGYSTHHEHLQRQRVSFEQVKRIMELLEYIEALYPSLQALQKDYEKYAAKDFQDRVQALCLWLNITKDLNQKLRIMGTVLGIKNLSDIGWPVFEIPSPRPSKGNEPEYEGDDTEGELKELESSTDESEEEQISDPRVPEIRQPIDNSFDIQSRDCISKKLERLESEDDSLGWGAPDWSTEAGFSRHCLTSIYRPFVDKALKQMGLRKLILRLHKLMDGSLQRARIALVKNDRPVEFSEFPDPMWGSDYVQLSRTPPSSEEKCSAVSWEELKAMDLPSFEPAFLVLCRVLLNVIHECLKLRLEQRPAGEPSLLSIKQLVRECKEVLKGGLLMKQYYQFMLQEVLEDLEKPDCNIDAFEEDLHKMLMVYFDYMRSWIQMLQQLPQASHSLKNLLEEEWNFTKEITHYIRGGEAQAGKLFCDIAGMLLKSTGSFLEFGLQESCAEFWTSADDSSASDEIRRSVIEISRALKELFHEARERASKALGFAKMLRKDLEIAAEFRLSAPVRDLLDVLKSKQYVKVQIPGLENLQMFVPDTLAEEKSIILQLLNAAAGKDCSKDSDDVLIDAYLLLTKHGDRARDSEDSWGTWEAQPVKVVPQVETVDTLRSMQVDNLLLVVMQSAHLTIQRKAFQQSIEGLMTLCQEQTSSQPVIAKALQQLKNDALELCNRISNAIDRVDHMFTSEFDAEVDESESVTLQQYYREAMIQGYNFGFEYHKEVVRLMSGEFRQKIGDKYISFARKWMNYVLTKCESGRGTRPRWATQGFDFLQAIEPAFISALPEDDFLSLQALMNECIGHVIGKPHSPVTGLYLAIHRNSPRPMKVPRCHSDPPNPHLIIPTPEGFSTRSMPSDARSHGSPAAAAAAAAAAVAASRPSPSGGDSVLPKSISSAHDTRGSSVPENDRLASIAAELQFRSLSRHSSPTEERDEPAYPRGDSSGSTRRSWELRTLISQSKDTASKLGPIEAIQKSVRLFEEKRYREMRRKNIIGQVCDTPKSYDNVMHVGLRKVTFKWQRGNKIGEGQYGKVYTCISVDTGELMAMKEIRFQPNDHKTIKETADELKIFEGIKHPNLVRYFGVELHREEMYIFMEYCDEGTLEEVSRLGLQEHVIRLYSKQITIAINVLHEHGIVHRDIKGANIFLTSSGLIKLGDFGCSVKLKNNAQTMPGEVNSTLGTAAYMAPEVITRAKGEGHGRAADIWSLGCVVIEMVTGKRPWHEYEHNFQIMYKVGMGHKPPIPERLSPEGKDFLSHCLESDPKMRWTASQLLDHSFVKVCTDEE
T18 sequence (Q02750 whole entry): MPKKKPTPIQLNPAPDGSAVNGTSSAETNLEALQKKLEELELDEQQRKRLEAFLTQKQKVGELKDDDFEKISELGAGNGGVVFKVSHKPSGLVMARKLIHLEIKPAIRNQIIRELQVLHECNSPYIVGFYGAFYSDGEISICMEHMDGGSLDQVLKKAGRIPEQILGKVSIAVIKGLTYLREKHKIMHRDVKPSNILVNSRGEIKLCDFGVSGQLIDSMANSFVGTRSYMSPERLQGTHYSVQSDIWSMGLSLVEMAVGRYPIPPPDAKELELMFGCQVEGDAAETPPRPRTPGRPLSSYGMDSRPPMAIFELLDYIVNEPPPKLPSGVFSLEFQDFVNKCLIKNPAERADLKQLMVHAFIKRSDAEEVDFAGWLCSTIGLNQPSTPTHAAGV
T9 sequence (P50750 whole entry): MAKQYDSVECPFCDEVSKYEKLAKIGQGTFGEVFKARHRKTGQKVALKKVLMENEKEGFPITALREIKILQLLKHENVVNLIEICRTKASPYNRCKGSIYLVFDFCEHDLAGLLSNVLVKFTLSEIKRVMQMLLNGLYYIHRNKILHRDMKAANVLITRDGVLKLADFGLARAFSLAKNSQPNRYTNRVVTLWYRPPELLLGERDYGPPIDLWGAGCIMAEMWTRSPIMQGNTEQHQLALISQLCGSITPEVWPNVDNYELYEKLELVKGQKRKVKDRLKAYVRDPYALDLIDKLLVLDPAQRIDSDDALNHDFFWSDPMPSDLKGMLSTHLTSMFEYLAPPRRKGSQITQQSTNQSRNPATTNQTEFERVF
T24 sequence (P52333 whole entry): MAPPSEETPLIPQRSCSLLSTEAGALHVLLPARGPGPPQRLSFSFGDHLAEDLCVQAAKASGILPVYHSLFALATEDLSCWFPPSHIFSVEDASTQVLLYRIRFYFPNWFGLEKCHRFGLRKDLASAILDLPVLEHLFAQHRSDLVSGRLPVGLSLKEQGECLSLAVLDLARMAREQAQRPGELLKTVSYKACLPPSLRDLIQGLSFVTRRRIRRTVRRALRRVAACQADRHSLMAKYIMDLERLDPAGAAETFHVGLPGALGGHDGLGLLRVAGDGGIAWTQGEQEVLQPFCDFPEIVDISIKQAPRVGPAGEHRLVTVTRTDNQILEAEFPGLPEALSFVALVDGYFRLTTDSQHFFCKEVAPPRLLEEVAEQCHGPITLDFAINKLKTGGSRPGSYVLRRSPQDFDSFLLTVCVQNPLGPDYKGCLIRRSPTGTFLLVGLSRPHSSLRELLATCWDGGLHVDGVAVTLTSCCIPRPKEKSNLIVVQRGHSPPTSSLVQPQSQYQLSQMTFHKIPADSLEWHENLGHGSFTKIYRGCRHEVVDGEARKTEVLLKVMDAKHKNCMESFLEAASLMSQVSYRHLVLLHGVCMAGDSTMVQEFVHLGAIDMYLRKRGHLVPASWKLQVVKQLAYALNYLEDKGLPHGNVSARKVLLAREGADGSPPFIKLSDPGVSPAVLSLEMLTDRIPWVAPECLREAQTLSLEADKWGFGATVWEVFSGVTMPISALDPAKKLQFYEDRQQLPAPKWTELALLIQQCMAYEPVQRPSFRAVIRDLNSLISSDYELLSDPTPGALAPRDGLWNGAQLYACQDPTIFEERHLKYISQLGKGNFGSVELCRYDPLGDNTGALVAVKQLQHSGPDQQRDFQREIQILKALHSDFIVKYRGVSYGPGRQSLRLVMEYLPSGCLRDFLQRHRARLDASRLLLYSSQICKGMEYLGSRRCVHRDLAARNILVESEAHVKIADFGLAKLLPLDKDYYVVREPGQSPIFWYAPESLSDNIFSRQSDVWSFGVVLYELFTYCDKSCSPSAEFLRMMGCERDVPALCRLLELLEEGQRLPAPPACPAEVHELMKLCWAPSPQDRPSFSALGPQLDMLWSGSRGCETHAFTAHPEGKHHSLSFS
T8 sequence (P31751 whole entry): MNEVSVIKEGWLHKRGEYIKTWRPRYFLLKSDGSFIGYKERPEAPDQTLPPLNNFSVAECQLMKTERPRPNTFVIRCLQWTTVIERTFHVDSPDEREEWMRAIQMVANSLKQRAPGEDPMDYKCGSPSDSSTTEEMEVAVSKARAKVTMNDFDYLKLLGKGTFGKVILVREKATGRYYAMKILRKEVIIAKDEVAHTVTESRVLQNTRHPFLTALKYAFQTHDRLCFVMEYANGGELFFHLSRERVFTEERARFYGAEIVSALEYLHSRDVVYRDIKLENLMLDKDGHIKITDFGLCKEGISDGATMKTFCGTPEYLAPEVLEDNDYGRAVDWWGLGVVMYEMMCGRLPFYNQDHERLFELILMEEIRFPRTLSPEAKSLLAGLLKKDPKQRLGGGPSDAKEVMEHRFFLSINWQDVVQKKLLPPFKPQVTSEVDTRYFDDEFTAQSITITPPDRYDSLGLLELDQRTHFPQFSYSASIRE

## CC(C)(C)CNCCn1c(Sc2cc3c(cc2I)OCO3)nc2c(N)ncnc21 [Compound 85]
97 kinases [1]
  remaining binding at 10 µM: 100%
97 kinases [2]
  remaining binding at 10 µM: 79%
97 kinases [3]
  remaining binding at 10 µM: 83%
97 kinases [4]
  remaining binding at 10 µM: 49%
97 kinases [5]
  remaining binding at 10 µM: 97%
97 kinases [6]
  remaining binding at 10 µM: 96%
97 kinases [7]
  remaining binding at 10 µM: 74%
97 kinases [8]
  remaining binding at 10 µM: 87%
97 kinases [9]
  remaining binding at 10 µM: 91%
97 kinases [10]
  remaining binding at 10 µM: 100%
97 kinases [11]
  remaining binding at 10 µM: 96%
97 kinases [12]
  remaining binding at 10 µM: 88%
97 kinases [13]
  remaining binding at 10 µM: 93%
97 kinases [14]
  remaining binding at 10 µM: 93%
97 kinases [15]
  remaining binding at 10 µM: 93%
97 kinases [16]
  remaining binding at 10 µM: 87%
97 kinases [17]
  remaining binding at 10 µM: 97%
97 kinases [18]
  remaining binding at 10 µM: 99%
97 kinases [19]
  remaining binding at 10 µM: 90%
97 kinases [20]
  remaining binding at 10 µM: 93%
97 kinases [21]
  remaining binding at 10 µM: 78%
97 kinases [22]
  remaining binding at 10 µM: 99%
97 kinases [23]
  remaining binding at 10 µM: 100%
97 kinases [24]
  remaining binding at 10 µM: 86%
97 kinases [25]
  remaining binding at 10 µM: 81%
97 kinases [26]
  remaining binding at 10 µM: 36%
97 kinases [27]
  remaining binding at 10 µM: 100%
97 kinases [28]
  remaining binding at 10 µM: 95%
97 kinases [29]
  remaining binding at 10 µM: 97%
97 kinases [30]
  remaining binding at 10 µM: 100%
97 kinases [31]
  remaining binding at 10 µM: 100%
97 kinases [32]
  remaining binding at 10 µM: 100%
97 kinases [33]
  remaining binding at 10 µM: 98%
97 kinases [34]
  remaining binding at 10 µM: 91%
97 kinases [35]
  remaining binding at 10 µM: 93%
97 kinases [36]
  remaining binding at 10 µM: 76%
97 kinases [37]
  remaining binding at 10 µM: 96%
97 kinases [38]
  remaining binding at 10 µM: 100%
